pIC50: −log10 of the molar value. Counter-ions that a name gives are not always drawn.
Target: T1, MAPKAPK2 enzyme (HIS-MK2, Invitrogen PV4019) (Homo sapiens, UniProt P49137)
T1 construct: His; purchased Invitrogen PV4019
Assay: Alternative MAPKAPK2 assay (Caliper microfluidic mobility shift, HSP27-peptide)
Assay type: biochemical
Conditions: HIS-MK2 0.013 nM, ATP 10 μM, 60 min at 30° C.

T1 sequence (P49137 whole entry): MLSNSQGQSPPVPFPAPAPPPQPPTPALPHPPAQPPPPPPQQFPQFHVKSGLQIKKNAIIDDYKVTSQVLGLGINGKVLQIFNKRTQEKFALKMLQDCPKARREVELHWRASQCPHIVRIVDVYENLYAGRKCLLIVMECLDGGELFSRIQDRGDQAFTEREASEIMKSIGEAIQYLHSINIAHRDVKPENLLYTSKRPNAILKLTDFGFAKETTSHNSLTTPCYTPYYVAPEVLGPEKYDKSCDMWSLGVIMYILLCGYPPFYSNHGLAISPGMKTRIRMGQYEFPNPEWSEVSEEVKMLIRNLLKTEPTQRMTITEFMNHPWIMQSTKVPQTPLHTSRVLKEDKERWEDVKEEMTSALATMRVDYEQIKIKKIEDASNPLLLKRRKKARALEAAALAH

| pIC50 | Structure (SMILES) |
| --- | --- |
| 7.74 | Cn1c2c(c3c1-c1cc(-c4cccc(F)c4)ncc1CC3)C(=O)NC1(CNC1)C2 [Example 133, 2-(3-Amino-azetidin-3-ylmethyl)-8-(3-fluoro-phenyl)-1-methyl-4,5-dihydro-1H-pyrrolo[2,3-f]isoquinoline-3-carboxylic acid lactam hydrochloride] |
| 7.32 | Cn1c2c(c3c1-c1nc(-c4cccc(Br)c4)ncc1CC3)C(=O)NC1(CNC1)C2 [Example 286, 2-(3-Amino-azetidin-3-ylmethyl)-8-(3-bromo-phenyl)-1-methyl-4,5-dihydro-1H-1,7,9-triaza-cyclopenta[a]naphthalene-3-carboxylic acid lactam hydrochloride] |
| 7.07 | CC(C)(O)CCc1ccc(-c2cc3c(cn2)CCc2c-3[nH]c3c2C(=O)NC2(CC2)C3)cc1 [Example 77, 2-(1-Amino-cyclopropylmethyl)-8-[4-(3-hydroxy-3-methyl-butyl)-phenyl]-4,5-dihydro-1H-pyrrolo[2,3-f]isoquinoline-3-carboxylic acid lactam] |
| 7.44 | O=C1NC2(CC2)C2(CC2)c2[nH]c3c(c21)CCc1cnc(-c2ccc(OCCN4CCOCC4)cc2)cc1-3 [Example 230, 2-(1′-Amino-bicyclopropyl-1-yl)-8-[4-(2-morpholin-4-yl-ethoxy)-phenyl]-4,5-dihydro-1H-pyrrolo[2,3-f]isoquinoline-3-carboxylic acid lactam] |
| 7.04 | Cc1ccc(-c2cc3c(cn2)CCc2c4c(n(C)c2-3)CC2(CN(C)C2)NC4=O)cn1 [Example 150, 2-(3-Amino-1-methyl-azetidin-3-ylmethyl)-8-(6-methyl-pyridin-3-yl)-1-methyl-4,5-dihydro-1H-pyrrolo[2,3-f]isoquinoline-3-carboxylic acid lactam] |
| 7.52 | COc1ccc(-c2ncc3c(n2)-c2c(c4c(n2C)C2(CNC2)CNC4=O)CC3)cc1 [Example 218, 2-(3-Aminomethyl-azetidin-3-yl)-8-(4-methoxy-phenyl)-1-methyl-4,5-dihydro-1H-1,7,9-triaza-cyclopenta[a]naphthalene-3-carboxylic acid lactam hydrochloride] |
| 8.05 | CC(C)Oc1ccc(-c2cc3c(cn2)CCc2c4c(n(C)c2-3)C2(CNC2)CNC4=O)cn1 [Example 184, 2-(3-Aminomethyl-azetidin-3-yl)-8-(6-isopropoxy-pyridin-3-yl)-1-methyl-4,5-dihydro-1H-pyrrolo[2,3-f]isoquinoline-3-carboxylic acid lactam hydrochloride] |
| 7.07 | O=C(NCc1ccccc1)c1cncc(-c2ncc3c(n2)-c2[nH]c4c(c2CC3)C(=O)NCC42CC2)c1 [Example 290, N-Benzyl-5-(10-spirocyclopropyl-7-oxo-6,7,8,9,10,11-hexahydro-5H-1,3,8,11-tetraaza-benzo[a]fluoren-2-yl)-nicotinamide] |
| 7.66 | CN1CC2(CNC(=O)c3c4c(n(C)c32)-c2nc(-c3cccc(F)c3)ncc2CC4)C1 [Example 204, 2-(3-Aminomethyl-1-methyl-azetidin-3-yl)-8-(3-fluoro-phenyl)-1-methyl-4,5-dihydro-1H-1,7,9-triaza-cyclopenta[a]naphthalene-3-carboxylic acid lactam] |
| 7.46 | COc1ccc(-c2cc3c(cn2)CCc2c-3[nH]c3c2C(=O)N[C@@H]2C[C@H]32)cc1 (racemic) [Example 52, (+)-2-(2-Amino-cyclopropyl)-8-(4-methoxy-phenyl)-4,5-dihydro-1H-1,7-diaza-cyclopenta[a]naphthalene-3-carboxylic acid lactam] |
| 7.82 | CCN1CC2(C1)c1[nH]c3c(c1C(=O)NC21CC1)CCc1cnc(-c2ccccc2F)cc1-3 [Example 253, 2-[3-(1-Amino-cyclopropyl)-1-ethyl-azetidin-3-yl]-8-(2-fluoro-phenyl)-4,5-dihydro-1H-pyrrolo[2,3-f]isoquinoline-3-carboxylic acid lactam] |
| 7.05 | N#Cc1ccc(-c2cc3c(cn2)CCc2c-3[nH]c3c2C(=O)NC2(CC2)C3)cn1 [Example 63, 2-(1-Amino-cyclopropylmethyl)-8-(6-cyano-pyridin-3-yl)-4,5-dihydro-1H-pyrrolo[2,3-f]isoquinoline-3-carboxylic acid lactam] |
| 7.00 | O=C1NC2(CC2)Cc2[nH]c3c(c21)CCc1cnc(-c2ccc(CCCN4CCOCC4)cc2)cc1-3 [Example 246, 2-(1-Amino-cyclopropylmethyl)-8-[4-(3-morpholin-4-yl-propyl)-phenyl]-4,5-dihydro-1H-pyrrolo[2,3-f]isoquinoline-3-carboxylic acid lactam] |
| > 8.52 | O=C1NCC2(CNC2)c2[nH]c3c(c21)CCc1cnc(-c2ccc(F)nc2F)cc1-3 [Example 205, 2-(3-Aminomethyl-azetidin-3-yl)-8-(2,6-difluoro-pyridin-3-yl)-4,5-dihydro-1H-pyrrolo[2,3-f]isoquinoline-3-carboxylic acid lactam hydrochloride] |
| 8.22 | CN(C)C1CCN(c2ccc(-c3cc4c(cn3)CCc3c-4[nH]c4c3C(=O)NCC43CC3)cc2C#N)C1 (centres unmarked) [Example 318, 2-(3-Dimethylamino-pyrrolidin-1-yl)-10-spirocyclopropyl-5-(7-oxo-6,7,8,9,10,11-hexahydro-5H-3,8,11-triaza-benzo[a]fluoren-2-yl)-benzonitrile] |
| 7.82 | O=C1NCC2(CNC2)c2[nH]c3c(c21)CCc1cnc(-c2ccc(CN4CCOCC4)c(F)c2)nc1-3 [Example 326, 2-(3-Aminomethyl-azetidin-3-yl)-8-(3-fluoro-4-morpholin-4-ylmethyl-phenyl)-4,5-dihydro-1H-1,7,9-triaza-cyclopenta[a]naphthalene-3-carboxylic acid lactam] |
| > 8.52 | CN1CC2(C1)c1[nH]c3c(c1C(=O)NC21CC1)CCc1cnc(-c2ccc(CCCN4CCOCC4)cc2)cc1-3 [Example 260, 2-[3-(1-Amino-cyclopropyl)-1-methyl-azetidin-3-yl]-8-[4-(3-morpholin-4-yl-propyl)-phenyl]-4,5-dihydro-1H-pyrrolo[2,3-f]isoquinoline-3-carboxylic acid lactam] |
| 7.41 | COc1ccc(-c2cc3c(cn2)CCc2c-3[nH]c3c2C(=O)NCC32CCC2)cc1F [Example 299, 2-(3-Fluoro-4-methoxy-phenyl)-10-spirocyclobutyl-5,6,8,9,10,11-hexahydro-3,8,11-triaza-benzo[a]fluoren-7-one] |
| > 8.52 | CN1CC2(CNC(=O)c3c2[nH]c2c3CCc3cnc(-c4cccc(C(=O)NCc5ccccc5)c4)cc3-2)C1 [Example 262, 2-(3-Aminomethyl-1-methyl-azetidin-3-yl)-8-(3-benzylcarbamoyl-phenyl)-4,5-dihydro-1H-pyrrolo[2,3-f]isoquinoline-3-carboxylic acid lactam] |
| 7.49 | Cn1c2c(c3c1-c1cc(-c4cncc(-c5ccccc5F)c4)ncc1CC3)C(=O)NC1(CNC1)C2 [Example 135, 2-(3-Amino-azetidin-3-ylmethyl)-8-[5-(2-fluoro-phenyl)-pyridin-3-yl]-1-methyl-4,5-dihydro-1H-pyrrolo[2,3-f]isoquinoline-3-carboxylic acid lactam hydrochloride] |
| 7.70 | O=C1NCC2(CCC2)c2[nH]c3c(c21)CCc1cnc(-c2ccc(CN4CCOCC4)c(F)c2)cc1-3 [Example 298, 2-(3-Fluoro-4-morpholin-4-ylmethyl-phenyl)-10-spirocyclobutyl-5,6,8,9,10,11-exahydro-3,8,11-triaza-benzo[a]fluoren-7-one] |
| > 8.52 | CN1CC2(C1)c1[nH]c3c(c1C(=O)NC21CC1)CCc1cnc(-c2ccccc2F)cc1-3 [Example 256, 2-[3-(1-Amino-cyclopropyl)-1-methyl-azetidin-3-yl]-8-(2-fluoro-phenyl)-4,5-dihydro-1H-pyrrolo[2,3-f]isoquinoline-3-carboxylic acid lactam] |
| 7.85 | Cn1c2c(c3c1-c1cc(-c4cccc(C#N)c4)ncc1CC3)C(=O)NC1(CNC1)C2 [Example 132, 2-(3-Amino-azetidin-3-ylmethyl)-8-(3-cyano-phenyl)-1-methyl-4,5-dihydro-1H-pyrrolo[2,3-f]isoquinoline-3-carboxylic acid lactam hydrochloride] |
| 7.96 | CN1CCN(c2ccc(-c3cc4c(cn3)CCc3c-4[nH]c4c3C(=O)NCC43CC3)cn2)CC1 [Example 316, 2-[6-(4-Methyl-piperazin-1-yl)-pyridin-3-yl]-10-spirocyclopropyl-5,6,8,9,10,11-hexahydro-3,8,11-triaza-benzo[a]fluoren-7-one] |
| 7.77 | COc1ccc(-c2cc3c(cn2)CCc2c4c(n(C)c2-3)CC2(CNC2)NC4=O)cn1 [Example 141, 2-(3-Amino-azetidin-3-ylmethyl)-8-(6-methoxy-pyridin-3-yl)-1-methyl-4,5-dihydro-1H-pyrrolo[2,3-f]isoquinoline-3-carboxylic acid lactam hydrochloride] |
| 7.47 | Cn1c2c(c3c1C1(CNC1)CNC3=O)CCc1cnc(-c3cccc(F)c3)nc1-2 [Example 203, 2-(3-Aminomethyl-azetidin-3-yl)-8-(3-fluoro-phenyl)-1-methyl-4,5-dihydro-1H-1,7,9-triaza-cyclopenta[a]naphthalene-3-carboxylic acid lactam hydrochloride] |
| 7.66 | O=C1NC2(CC2)Cc2[nH]c3c(c21)CCc1cnc(-c2ccc(N4CCOCC4)nc2)cc1-3 [Example 236, 2-(1-Amino-cyclopropylmethyl)-8-(6-morpholin-4-yl-pyridin-3-yl)-4,5-dihydro-1H-pyrrolo[2,3-f]isoquinoline-3-carboxylic acid lactam] |

| Structure (SMILES) | pIC50 |
| --- | --- |
| CC(=O)OCc1ccc(-c2cc3c(cn2)CCc2c-3[nH]c3c2C(=O)NC2(CC2)C3)cn1 [Example 244, 8-(6-Acetoxymethyl-pyridin-3-yl)-2-(1-amino-cyclopropylmethyl)-4,5-dihydro-1H-pyrrolo[2,3-f]isoquinoline-3-carboxylic acid lactam] | 7.37 |
| O=C1NC2(CC2)C2(CNC2)c2[nH]c3c(c21)CCc1cnc(-c2cccc(F)c2)cc1-3 [Example 180, 2-[3-(1-Amino-cyclopropyl)-azetidin-3-yl]-8-(3-fluoro-phenyl)-4,5-dihydro-1H-pyrrolo[2,3-f]isoquinoline-3-carboxylic acid lactam hydrochloride] | > 8.52 |

— US7838674B2, “Tetracyclic lactame derivatives” (Novartis AG, priority 2007, dated 2010)
